“And” between values parts separate entries of the source, which are not always exact repeats. Equal values may be shown once.
Key:
Format in all cases: in vivo
[1] = test system: high dose LPS (E. coli 026:B6)-induced septic shock in BALB/c mice; test: high dose LPS-induced septic shock, peptide administered twice; settings: peptide twice (t = 2 and 24 hours) 5 mg/kg
Method in brief: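 Female BALB/c mice (8–12 weeks) given high-dose LPS (E. coli 026:B6) i.p., predetermined to cause 80–100% mortality in 24–72 h. Peptides in PBS at 5 mg/kg i.p. at 2 and 24 h after LPS; sickness scored 0–5 or dead.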

[2] = test system: renal ischemia reperfusion in mice; test: mouse renal ischemia reperfusion test; parameters: BUN after 25 minutes renal ischemia, mean / Urea levels in dose-response experiment: unit not given here; settings: 5 mg/kg i.v.
Method in brief: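 In anesthetized mice kept at 37° C, the left renal pedicle was clamped for 25 min and the right kidney removed after reperfusion. Peptide in saline was given i.v. (5 mg/kg; other series 0.3–30 mg/kg) 5 min before clamping and 5 min before release, with PBS as control. Mortality and BUN were measured at 2, 24 and 72 h; P values were calculated by Mann-Whitney U-test.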

[3] = test system: LPS (E. coli 026:B6)-induced septic shock in BALB/c mice; test: LPS-induced septic shock, single dose of peptide
Method: Mice used in sepsis or septic shock experiments: Female BALB/c mice of eight to twelve weeks of age were used for all experiments. The animals were bred in our facility under specific pathogen-free conditions according to the protocols described in the […] of European Laboratory Animal Science Associations (FELASA) Working group on Animal Health (Laboratory Animals 28:1-24, 1994).
Injection protocols: For the endotoxin model, BALB/c mice were injected i.p. with 150-300 μg LPS (E. coli 026:B6; Difco Lab., Detroit, Mich., USA). Control groups were treated with PBS i.p. only. To test the effect of peptides, they were dissolved in PBS and injected i.p. at predetermined points in time after LPS treatment.
Mice were scored for sickness severity using the following measurement scheme: • 0 No abnormalities. • 1 Percolated fur, but no detectable behavior differences compared to normal mice. • 2 Percolated fur, huddle reflex, responds to stimuli (such as tap on cage), just as active during handling as healthy mouse. • 3 Slower response to tap on cage, passive or docile when handled, but still curious when alone in a new setting. • 4 Lack of curiosity, little or no response to stimuli, quite immobile. • 5 Labored breathing, inability or slow to self-right after being rolled onto back (moribund, sacrificed). • D Dead.
A first set of septic shock experiments were set up to determine which of the peptides LQG, LQGV (SEQ ID NO:117), VLPALP (SEQ ID NO:140), VLPALPQ (SEQ ID NO:143), MTR, MTRV (SEQ ID NO:119), VVC or QVVC (SEQ ID NO:118) were capable of inhibiting lipopolysaccharide (LPS)-induced septic shock in mice by treating mice with a single dose of peptide at two hours after LPS treatment. Peptides were used at 5 mg/kg bodyweight. BALB/c mice were injected i.p. with escalating doses LPS (E. coli 026:B6; Difco Lab., Detroit, Mich. USA), predetermined to be leading to 80 to 100% mortality in 24 to 72 hours.
To test the effect of peptide early in the development of shock, mice were treated at two hours or at 24 hours after treatment with varying doses of LPS by i.p. injection with test peptide at 5 mg/kg bodyweight.

[4] = LPS dose 7**, single dose 5 mg/kg
[5] = LPS dose 7*, single dose 5 mg/kg
[6] = LPS dose 8, single dose 5 mg/kg
[7] = LPS dose 8, single dose 5 mg/kg, 5 mg/kg
[8] = LPS dose 9, single dose 5 mg/kg
[9] = LPS dose 9, single dose 5 mg/kg, 5 mg/kg
[10] = LPS dose 10, single dose 5 mg/kg
[11] = LPS dose 10, single dose 5 mg/kg, 5 mg/kg

## VLPALP (hexamer peptide)
[1]; LPS dose 10.5
  mice scored D (dead), effect at t = 48 hours: 5
  mice with sickness score 5, effect at t = 24 hours: 5
[1]; LPS dose 11
  mice scored D (dead), effect at t = 48 hours: 6
  mice with sickness score 4, effect at t = 24 hours: 2
  mice with sickness score 4, effect at t = 48 hours: 1
  mice with sickness score 5, effect at t = 24 hours: 4
[2]; 2 hours after reperfusion
  BUN after 25 minutes renal ischemia, mean: 16.24
[2]; 24 hours after reperfusion
  BUN after 25 minutes renal ischemia, mean: 62.4
[2]; 72 hours after reperfusion
  BUN after 25 minutes renal ischemia, mean: 47.05
[2]; t = 0 hr (before clamping)
  BUN after 25 minutes renal ischemia, mean: 8.423
[3]; 5 mg/kg i.p.
  protective effect against LPS-induced sepsis (in words): marked protective effect
[3]; [4]
  mice with sickness score 1, effect at t = 24 hours: 5
  mice with sickness score 1, effect at t = 48 hours: 5
  mice with sickness score 2, effect at t = 24 hours: 1
  mice with sickness score 2, effect at t = 48 hours: 1
[3]; [5]
  mice with sickness score 1, effect at t = 24 hours: 4
  mice with sickness score 1, effect at t = 48 hours: 5
  mice with sickness score 2, effect at t = 24 hours: 2
  mice with sickness score 2, effect at t = 48 hours: 1
[3]; [6]
  mice with sickness score 0, effect at t = 48 hours: 2
  mice with sickness score 3, effect at t = 48 hours: 1
[3]; [7]
  mice with sickness score 1, effect at t = 24 hours: 3 and 2
  mice with sickness score 1, effect at t = 48 hours: 3 and 5
  mice with sickness score 2, effect at t = 48 hours: 2 and 1
[3]; [8]
  mice scored D (dead), effect at t = 48 hours: 1
  mice with sickness score 1, effect at t = 24 hours: 2
  mice with sickness score 3, effect at t = 48 hours: 1
  mice with sickness score 4, effect at t = 24 hours: 1
  mice with sickness score 5, effect at t = 48 hours: 2
[3]; [9]
  mice with sickness score 2, effect at t = 24 hours: 3 and 4
  mice with sickness score 2, effect at t = 48 hours: 2 and 1
  mice with sickness score 3, effect at t = 24 hours: 1 and 2
[3]; [10]
  mice scored D (dead), effect at t = 48 hours: 2
  mice with sickness score 2, effect at t = 48 hours: 2
  mice with sickness score 3, effect at t = 48 hours: 2
  mice with sickness score 5, effect at t = 48 hours: 1
[3]; [11]
  mice with sickness score 1, effect at t = 48 hours: 3 and 2
  mice with sickness score 2, effect at t = 24 hours: 3 and 4
  mice with sickness score 4, effect at t = 24 hours: 3 and 2

## VLPALPQ (septamer peptide)
[1]; LPS dose 10.5
  mice scored D (dead), effect at t = 48 hours: 2
  mice with sickness score 2, effect at t = 24 hours: 1
  mice with sickness score 2, effect at t = 48 hours: 3
  mice with sickness score 3, effect at t = 24 hours: 2
  mice with sickness score 5, effect at t = 24 hours: 2
[1]; LPS dose 11
  mice scored D (dead), effect at t = 48 hours: 2
  mice with sickness score 4, effect at t = 48 hours: 3
  mice with sickness score 5, effect at t = 24 hours: 6
  mice with sickness score 5, effect at t = 48 hours: 1
[1]; LPS dose 11, 5 mg/kg
  mice with sickness score 2, effect at t = 48 hours: 4 and 2
[2]; 2 hours after reperfusion
  BUN after 25 minutes renal ischemia, mean: 13.58
[2]; 24 hours after reperfusion
  BUN after 25 minutes renal ischemia, mean: 37.79
[2]; 72 hours after reperfusion
  BUN after 25 minutes renal ischemia, mean: 37.6375
[2]; at 72 hours post-reperfusion
  BUN concentration versus PBS (in words): did much better in terms of reduced BUN concentration
[2]; t = 0 hr (before clamping)
  BUN after 25 minutes renal ischemia, mean: 8.257
[3]; [4]
  mice scored D (dead), effect at t = 24 hours: 1
  mice scored D (dead), effect at t = 48 hours: 6
  mice with sickness score 5, effect at t = 24 hours: 5
[3]; [5]
  mice scored D (dead), effect at t = 48 hours: 2
  mice with sickness score 3, effect at t = 24 hours: 3
  mice with sickness score 4, effect at t = 24 hours: 3
  mice with sickness score 4, effect at t = 48 hours: 2
  mice with sickness score 5, effect at t = 48 hours: 2
[3]; [6]
  mice scored D (dead), effect at t = 24 hours: 2
  mice scored D (dead), effect at t = 48 hours: 6
  mice with sickness score 2, effect at t = 24 hours: 1
  mice with sickness score 3, effect at t = 24 hours: 3
  mice with sickness score 3, effect at t = 48 hours: 1
  mice with sickness score 4, effect at t = 48 hours: 3
  mice with sickness score 5, effect at t = 24 hours: 3
  mice with sickness score 5, effect at t = 48 hours: 2
[3]; [7]
  mice with sickness score 4, effect at t = 24 hours: 2 and 1
[3]; [10]
  mice scored D (dead), effect at t = 24 hours: 3
  mice scored D (dead), effect at t = 48 hours: 5
  mice with sickness score 3, effect at t = 24 hours: 1
  mice with sickness score 4, effect at t = 24 hours: 2
  mice with sickness score 5, effect at t = 48 hours: 1
[3]; [11]
  mice with sickness score 5, effect at t = 24 hours: 4 and 2
